Key:
[1] = system: TNFα production in RAW 264.7 macrophage cell line; test: Mouse TNF alpha quantification assay (LPS-stimulated macrophages, ELISA); assay type: cell-based; details: RAW264.7, RAW 264.7 murine leukemia virus transformed macrophage cell lines, LPS stimulation, read-out: TNF-α % Inhibition at 30 μM
[2] = system: IL6 production in RAW 264.7 macrophage cell line; test: Mouse IL6 quantification assay (LPS-stimulated macrophages, ELISA); assay type: cell-based; details: RAW264.7, RAW 264.7 murine leukemia virus transformed macrophage cell lines, LPS stimulation, read-out: IL-6 % Inhibition at 30 μM

| SMILES | inhibition at 30 µM [1] | inhibition at 30 µM [2] |
| --- | --- | --- |
| COc1ccc2c(ccn2CC(=O)Nc2nnc(-c3ccccn3)[nH]2)c1 [drawing 1940] | 1 to 25% | 26 to 50% |
| O=C(Nc1nnc(-c2ccccn2)[nH]1)C1Cc2cc(Cl)ccc2O1 (stereo not drawn) [drawing 1995] | 1 to 25% | 51 to 75% |
| N#Cc1cccc(-c2csc3c(O)nc(-c4ccccn4)nc23)c1 [drawing 2325] | 0% | 26 to 50% |
| CS(=O)(=O)CCCC(=O)N1CCCc2c(O)nc(-c3ccccn3)nc21 [drawing 2082] | 0% | 26 to 50% |
| Oc1nc(-c2ccccn2)nc2c(CC3CCNC3)csc12 (stereo not drawn) [drawing 2353] | 1 to 25% | 51 to 75% |
| Nc1nc(O)c2scc(-c3ccccc3)c2n1 [drawing 2118] | 0% | 1 to 25% |
| COc1ccc(-c2cc3nc(-c4ccccn4)nc(O)c3s2)cc1 [drawing 2390] | 1 to 25% | 0% |
| CC(C)(C(=O)Nc1nc(-c2ccccn2)nc2sccc12)c1ccc(C#N)cc1 [drawing 2178] | 1 to 25% | 76 to 100% |
| Cn1ccnc1-c1nc(O)c2sc(-c3ccccc3)c(-c3cccc(C(F)(F)F)c3)c2n1 [drawing 2419] | 26 to 50% | 26 to 50% |
| Oc1nc(-c2ccccn2)nc2sc3c(c12)CCCNC3 [drawing 2245] | 1 to 25% | 1 to 25% |
| COc1nc(-c2ccccn2)nc(Oc2cccc(C(F)(F)F)c2)c1O [drawing 2392] | 1 to 25% | 0% |
| Cc1sc2c(O)nc(-c3ccccn3)nc2c1C(=O)N1CCN(Cc2cccc(O)c2)CC1 [drawing 2334] | 0% | 26 to 50% |
| CC(OCc1ccccc1)C(=O)Nc1nnc(-c2ccccn2)[nH]1 (stereo not drawn) [drawing 1971] | 0% | 1 to 25% |
| O=C(NCCc1ccnc(O)n1)c1csc2nc(-c3ccccn3)nc(N3CCOCC3)c12 [drawing 2290] | 0% | 1 to 25% |
| Oc1nc(-c2ccccn2)nc(Oc2cccc(C(F)(F)F)c2)c1O [drawing 2385] | 1 to 25% | 1 to 25% |
| Cc1cccc(C)c1OCCOC(=O)c1ccccc1SCCOc1c(C)cccc1C [drawing 2069] | 0% | 1 to 25% |
| COCCNc1nc(-c2ccncn2)nc2sc(-c3ccccc3)c(-c3ccccc3)c12 [drawing 2401] | 51 to 75% | 76 to 100% |

| SMILES | inhibition at 30 µM [1] | inhibition at 30 µM [2] |
| --- | --- | --- |
| Cc1sc2nc(-c3ccccn3)nc(NCCc3nccn3C)c2c1-c1ccccc1 [drawing 2134] | 0% | 1 to 25% |
| OC1CCCN(c2nc(-c3ccccn3)nc3scc(-c4ccccc4)c23)C1 (stereo not drawn) [drawing 2154] | 1 to 25% | 26 to 50% |
| CN(C)Cc1ccc(F)c(-c2csc3c(O)nc(-c4ccccn4)nc23)c1 [drawing 2293] | 51 to 75% | 76 to 100% |
| Nc1nc(O)c2scc(C(=O)NCCc3cccnc3)c2n1 [drawing 2098] | 1 to 25% | 1 to 25% |
| O=C(Cn1cnc2ccccc2c1=O)Nc1nc(-c2ccccn2)cs1 [drawing 2015] | 1 to 25% | 51 to 75% |
| O=C(c1csc2c(O)nc(-c3ccccn3)nc12)N1CCN(c2ccc(F)cc2)CC1 [drawing 2180] | 0% | 26 to 50% |
| O=C(c1csc2c(O)nc(-c3ccccn3)nc12)N1CCN(Cc2cccc(O)c2)CC1 [drawing 2169] | 1 to 25% | 26 to 50% |
| COc1nc(-c2ccccn2)nc(Oc2cccc(C(F)(F)F)c2)c1OC [drawing 2379] | 1 to 25% | 1 to 25% |
| c1ccc(-c2csc3nc(-c4ccccn4)nc(N4CCN(CCN5CCCC5)CC4)c23)cc1 [drawing 2153] | 0% | 26 to 50% |
| CCn1nc(C)cc1-c1csc2c(O)nc(-c3ccccn3)nc12 [drawing 2295] | 51 to 75% | 76 to 100% |
| O=C(c1csc2c(O)nc(-c3ccccn3)nc12)N1CCNC(c2ccc(Cl)cc2)C1 (stereo not drawn) [drawing 2352] | 1 to 25% | 76 to 100% |
| COc1cnc(-c2cnc[nH]2)nc1O [drawing 2343] | 0% | 1 to 25% |
| Cc1nc(-c2ccccn2)nc(O)c1CCC(=O)Nc1cccc(OCC(=O)N2CCCC2)c1 [drawing 2036] | 1 to 25% | 0% |
| CCOCCC1CCN(C(=O)c2csc3c(O)nc(N)nc23)CC1 [drawing 2091] | 1 to 25% | 0% |
| O=C(COCCOc1ccccc1)Nc1nnc(-c2ccccn2)[nH]1 [drawing 2005] | 1 to 25% | 0% |
| Oc1nc(-c2ccccn2)nc2c1ncn2-c1ccccn1 [drawing 2124] | 0% | 26 to 50% |
